Like-named read-outs stand apart in the source and are kept apart here.
Columns and labels:
[1] = test system: B. turcica KLEX1; assay: MIC of hygromycin A resistant mutant; format: cell-based
[2] = test system: Alkalispirochaeta americana DSM 14872
[3] = test system: B. burgdorferi hygromycin A resistant mutant KLEx2; assay: RNAseq of hygromycin A treated vs untreated cells; format: cell-based; settings: for log2 Fold Change: 4 ug/ml hygromycin A vs untreated
[4] = test system: B. burgdorferi B31 KLEX2; assay: MIC of hygromycin A resistant mutant; format: cell-based
[5] = test system: B. burgdorferi; assay: Efficacy of hygromycin A in Peromyscus mice; format: in vivo; settings: Peromyscus leucopus, subcutaneous, twice a day, 5 days
Description: Mice were sacrificed on Day 11 and the heart, ankle, and ear were taken for culture. Cultures were monitored by darkfield microscopy for 4 weeks or until positive.

[6] = test system: Borrelia burgdorferi (B31, N40, 297); format: cell-based
[7] = test system: E. coli ΔtolC (no efflux); assay: MIC of E. coli mutant strains
[8] = test system: E. coli WT BW25113; assay: MIC of E. coli mutant strains
[9] = test system: Leptospira interrogans ATCC BAA-1198

## Hygromycin A
[1]; B. turcica KLEX1, stable hygromycin A resistance
  MIC: 8 µg/mL
[1]; B. turcica KLEX1 vs parent
  MIC increase as compared to wild type parent strain: 16 fold
[2]; Alkalispirochaeta americana
  MIC: 0.5 µg
[2]; Alkalispirochaeta americana DSM 14872, anaerobic
  Minimum inhibitory concentration (MIC): 0.5 µg/mL
[3]; gene 16S
  log2 Fold Change: −1.80
[3]; gene BBC10
  log2 Fold Change: −8.07
[3]; gene BBC11
  log2 Fold Change: −7.92
[3]; gene BB_0183
  log2 Fold Change: −1.46
[3]; gene BB_0206
  log2 Fold Change: 1.07
[3]; gene BB_0212
  log2 Fold Change: −1.15
[3]; gene BB_0731
  log2 Fold Change: −1.01
[3]; gene BB_0758
  log2 Fold Change: 1.32
[3]; gene BB_0839
  log2 Fold Change: −1.15
[3]; gene BB_0844
  log2 Fold Change: −1.41
[3]; gene BB_A07
  log2 Fold Change: −1.23
[3]; gene BB_A34
  log2 Fold Change: 1.06
[3]; gene BB_B13
  log2 Fold Change: 1.12
[3]; gene BB_H41
  log2 Fold Change: −2.37
[3]; gene BB_I18
  log2 Fold Change: 1.16
[3]; gene BB_J11
  log2 Fold Change: 1.02
[3]; gene BB_J17
  log2 Fold Change: 1.43
[3]; gene BB_J27
  log2 Fold Change: 1.18
[3]; gene BB_J31
  log2 Fold Change: 1.22
[3]; gene BB_J45
  log2 Fold Change: 1.22
[3]; gene BB_K42
  log2 Fold Change: −1.05
[3]; gene BB_L03
  log2 Fold Change: 1.06
[3]; gene BB_N03
  log2 Fold Change: 1.15
[3]; gene BB_N04
  log2 Fold Change: 1.06
[3]; gene BB_O18
  log2 Fold Change: −1.04
[3]; gene BB_P03
  log2 Fold Change: 1.06
[3]; gene BB_U05
  log2 Fold Change: −1.14
[3]; gene bmpD
  log2 Fold Change: −1.67
[3]; gene glpK
  log2 Fold Change: −1.62
[3]; gene tRNA-Cys-1
  log2 Fold Change: −1.17
[3]; transcriptome of hygromycin A treated KLEX2 cells vs untreated
  Decrease in the expression of bmpD: 2.78 fold
[4]; B. burgdorferi B31 KLEX2, stable hygromycin A resistance
  MIC: 4 µg/mL
[4]; B. burgdorferi B31 KLEX2 vs parent
  MIC increase as compared to wild type parent strain: 16 fold
[4]; Hygromycin A resistant B. burgdorferi (HygR) (FIG. 7B)
  MIC: 4 µg/mL
[5]; total daily dose 100 mg/kg/day
  Culture positive (%): 100%
[5]; total daily dose 200 mg/kg/day
  Culture positive (%): 0%
500 mg/kg vs minimal efficacious dose
  Maximal non-toxic dose tested relative to minimal efficacious dose: 10 fold
C3H mice, 500 mg/kg, preliminary data
  Toxicity at maximal dose tested: absence of toxicity
Any of the doses used in the efficacy experiments (IP, gavage, bait)
  Signs of toxicity: no signs of toxicity
Even at very high doses
  Indications of toxicity: no indications of toxicity
Preliminary testing
  Biosafety window: > 500 mg/kg
[6]; B. burgdorferi
  MIC: 0.25 µg/mL
[6]; Borrelia burgdorferi (B31, N40, 297)
  MIC: 0.25 µg
[6]; wild type B. burgdorferi (FIG. 7B)
  MIC: 0.25 µg/mL
[7]; E. coli ΔtolC, no efflux
  MIC: 16 µg/mL
[7]; adenosine 2.5-2500 μM, concentration-dependent
  Decrease in MIC on addition of adenosine to E. coli: up to 8 fold
[8]
  MIC: 512 µg/mL
[9]
  Minimum inhibitory concentration (MIC): 4 µg/mL
